Source: patent publication US20240132461A1, “FLAVONE DEAZA SPERMIDINE ANALOGUES AND THEIR USE TREATING CANCER” (FLORATEK PHARMA S.A., priority 2021, published 2024)

How the values were obtained:
[1] = In vivo maximum tolerated dose in NOG mice; details: for tolerability at the highest dose administered: 8-10 mg/kg i.p., daily or every other day over 8 days; for MTD at 8 days: mouse, in vivo, ip, repeated i.p. administration, MTD not reached, read-out: maximum tolerated dose (MTD), estimated
Description: In order to evaluate the general toxicity of selected SND compounds in an animal model, a maximum tolerated dose (MTD) in NOG mice has been undertaken. Three mice per group were treated daily or every other day over 8 days at various doses between 5 mg/kg and 10 mg/kg. Administration of the compounds was i.p. A stock solution of the compounds (40 mg/ml in DMSO) was prepared and frozen at −20° C. in aliquots for each treatment. […] Body weights were measured before each treatment. Mice were further observed for 1 week after the last treatment.

[2] = test system: RXF 486; assay: Cell viability assay, MDR renal carcinoma patient derived line RXF 486; format: cell-based; details: RXF 486 MDR renal carcinoma patient derived line
Description: (§1) Antitumor activity of the compounds and doxorubicin as a positive control was assessed by using the CellTiter-Blue Cell Viability Assay (Promega, #G8082) or CellTiter-Glow® Luminescent Cell Viability assay (Promega # G7572) according to the manufacturer's instructions. The compounds were tested at 5 or 6 concentrations in half-log increments (highest concentration 30 μM-100 μM) in duplicate or triplicate well conditions.
(§2) Tumor cells were grown at 37° C. in a humidified atmosphere with 5% CO2 in RPMI 1640 or DMEM medium, supplemented with 10% (v/v) fetal calf serum and 50 μg/ml gentamicin for up to 20 passages, and were passaged once or twice weekly. Cells were harvested using TrypLE or PBS buffer containing 1 mM EDTA, and the percentage of viable cells is determined using a CASY Model TT cell counter (OMNI Life Science). Cells were harvested from exponential phase cultures, counted and plated in 96 well flat-bottom microtiter plates at a cell density depending on the cell line's growth rate (4,000-20,000 cells/well depending on the cell line's growth rate, up to 60,000 for hematological cancer cell lines) in RPMI 1640 or DMEM medium supplemented with 10% (v/v) fetal calf serum and 50 μg/ml gentamicin (140 μl/well). […] Viability of cells was quantified by the CellTiter-Blue® cell viability assay (Promega G8081) or CellTiter-Glow® Luminescent Cell Viability assay (Promega # G7572). […]

[3] = test system: H69AR; assay: Cell viability assay, resistant small cell lung carcinoma cell line H69AR; format: cell-based; details: H69AR multiple drug resistant small cell lung carcinoma cell line
Description: as §1
(§3) Tumor cells were grown at 37° C. in a humidified atmosphere with 5% CO2 in RPMI 1640 or DMEM medium, supplemented with 10% (v/v) fetal calf serum and 50 μg/ml gentamicin for up to 20 passages, and were passaged once or twice weekly. Cells were harvested using TrypLE or PBS buffer containing 1 mM EDTA, and the percentage of viable cells is determined using a CASY Model TT cell counter (OMNI Life Science). Cells were harvested from exponential phase cultures, counted and plated in 96 well flat-bottom microtiter plates at a cell density depending on the cell line's growth rate (4,000-20,000 cells/well depending on the cell line's growth rate, up to 60,000 for hematological cancer cell lines) in RPMI 1640 or DMEM medium supplemented with 10% (v/v) fetal calf serum and 50 μg/ml gentamicin (140 μl/well). Cultures were incubated at 37° C. and 5% CO2 in a humidified atmosphere. After 24 h, 10 μl of test compounds or control medium are added, and left on the cells for another 72 h. Compounds were serially diluted in DMSO, transferred in cell culture medium, and added to the assay plates. The DMSO concentration was kept constant at <0.3% v/v across the assay plate. Viability of cells was quantified by the CellTiter-Blue® cell viability assay (Promega G8081) or CellTiter-Glow® Luminescent Cell Viability assay (Promega # G7572). Fluorescence (FU) was measured by using the EnSpire® multimode plate reader (Perkin Elmer) (excitation λ=570 nm, emission λ=600 nm) or luminescent detection of ATP in viable cells was used as parameter for proliferation. Luminescence was measured with the microplate luminometer (Promega or Perkin Elmer).
(§4) Sigmoidal concentration-response curves were fitted to the data points (test-versus-control, T/C values) obtained for each tumor model using 4 parameter non-linear curve fit (Charles River DRS Datawarehouse Software) or with GraphPad prism 5.02 software. IC50 values are reported as absolute IC50 values, being the concentration of test compound at the intersection of the concentration-response curves with T/C=50%
The multiple drug resistant cell line H69AR obtained from ATCC, was established from NCI-H69 cells that were grown in the presence of increasing concentrations of adriamycin (doxorubicin). The H69AR cell line is approximately 50-fold resistant to adriamycin as compared to the parental NCI-H69 cell line. SND141, SND142, SND143, SND146, SND147 and SND148 inhibited the resistant cell line H69AR with IC50s below 5 μM, as presented in Table 8.

[4] = test system: pancreatic carcinoma cell; assay: Cell viability assay, pancreatic carcinoma cell lines (summary); format: cell-based; details: summary of Table 12; read-out: IC50s, pancreatic carcinoma cell growth
Description: as §1, §3, §4

[5] = test system: MIA-Pa-Ca-2; assay: Cell viability assay, pancreatic carcinoma cell line MIA-Pa-Ca-2; format: cell-based; details: Homo sapiens, MIA PaCa-2; MIA-Pa-Ca-2 pancreatic carcinoma cell line
Description: as §1, §3, §4

[6] = test system: Panc-1; assay: Cell viability assay, pancreatic carcinoma cell line Panc-1; format: cell-based; details: Homo sapiens; Panc-1 pancreatic carcinoma cell line
Description: as §1, §3, §4

[7] = test system: lung carcinoma cell; assay: Cell viability assay, lung carcinoma cell lines (summary); format: cell-based; details: summary of Tables 7A-E; read-out: IC50s, lung carcinoma cell growth
Description: as §1, §3, §4

[8] = test system: CALU-6; assay: Cell viability assay, non-small cell lung carcinoma cell line CALU-6; format: cell-based; details: Homo sapiens; CALU-6 non-small cell lung carcinoma cell line
Description: as §1, §3, §4

[9] = test system: CH-17-0098; assay: PDX cytotoxicity assay, bile duct PDX CH-17-0098; format: cell-based
Description: PDX-derived cell cultures were obtained from tumors explanted from mice and isolated by mechanical and enzymatic dissociation. […] Cells were harvested and seeded in 96-wells plates at a density of 1.25 to 5×10^3 cells/well for cytotoxicity assays. Cells were incubated 48 h at 37° C. prior to addition of test molecules and vehicle (DMSO, 0.1%) at desired final concentrations. Cell viability was assessed before drugs' addition (T0) and 5 days after test molecules addition by measuring ATP cell content using CellTiter-Glo® Luminescent Cell Viability Assay (Promega) according to the manufacturer's instructions. Luciferase activity was measured on a luminometer (PerkinElmer® EnVision™). Each concentration of compounds was tested in triplicate.
Viability was calculated as a percentage of ATP value compared to vehicle treated controls.
For PDX primary cell cultures, the tumour tissue was washed with PBS containing antibiotic-antimycotic and non-tumour tissue and necrotic tumour tissues were separated. The tumour tissue was transferred to a new dish and cut into 1˜2 mm^3 fragments, resuspended in RPMI-1640 medium and centrifuged at 1,200 rpm for 6 min at room temperature. The pelleted material was resuspended with 15 mL of Tumour Cell Digestion Solution and incubated at 37° C. for 1 hour with agitation. […]

[10] = test system: NCI-H1299; assay: Cell viability assay, non-small cell lung carcinoma cell line NCI-H1299; format: cell-based; details: Homo sapiens
Description: as §1, §3, §4

[11] = test system: A375; assay: Cell viability assay, melanoma cell line A375; format: cell-based; details: Homo sapiens, A-375
Description: as §1, §3, §4

[12] = test system: SK-OV-3; assay: Cell viability assay, ovarian carcinoma cell line SK-OV-3; format: cell-based
Description: as §1, §2

[13] = test system: MeWo; assay: Cell viability assay, melanoma cell line MeWo; format: cell-based; details: Homo sapiens
Description: as §1
as §3, with “Elmer). […]” for “Elmer).”

[14] = test system: IMR-5-75; assay: Cell viability assay, brain carcinoma cell line IMR-5-75; format: cell-based; details: IMR-5-75 brain carcinoma cell line
Description: as §1, §2

[15] = test system: melanoma cell lines; assay: Cell viability assay, melanoma cell lines (summary); format: cell-based; details: summary of Tables 14A and 14B; read-out: IC50s, melanoma cell lines growth
Description: as §1, §3, §4

[16] = test system: H69AR; details: H69AR from ATCC, vs parental NCI-H69; cited from earlier work

IC50 [7] [µM] | SMILES | tolerability at the highest dose administered [1] | MTD at 8 days [1] [mg/kg] | IC50 [2] [µM] | IC50 [3] [µM] | IC50 ([3]; Homo sapiens, H69AR) [µM] | IC50 [4] [µM] | IC50 [5] [µM] | IC50 [6] [µM] | other results
– | COc1c(O)ccc2c(=O)cc(-c3ccc(CCCCN4CCCC4)cc3)oc12 [SND143, 7-hydroxy-8-methoxy-2-(4-(4-(pyrrolidin-1-yl)butyl)phenyl)-4H-chromen-4-one] | well tolerated | > 10 | 1.3 | 3.3 | < 5 | < 10 | 4.96 | 6.09 | –
< 20 | COc1c(O)ccc2c(=O)cc(-c3ccc(CCCCN(C)CCN4CCCCC4)cc3)oc12 [SND146, 7-Hydroxy-8-methoxy-2-(4-(4-(methyl(2-(piperidin-1-yl)ethyl)amino)butyl)phenyl)-4H-chromen-4-one] | – | – | 0.4 | – | – | < 10 | 0.87 | 1.2 | IC50 [8]: 17.2 µM
– | COc1c(O)ccc2c(=O)cc(-c3ccc(CCCCN4CCCCC4)cc3)oc12 [SND148, 7-hydroxy-8-methoxy-2-(4-(4-(piperidin-1-yl)butyl)phenyl)-4H-chromen-4-one] | well tolerated | > 10 | – | 2.5 | < 5 | < 10 | 2.21 | 2.3 | IC50 [9]: 13.9 µM
< 20 | COc1c(O)ccc2c(=O)cc(-c3ccc(CCCCNCCNCCCN)cc3)oc12 [SND211] | – | – | – | – | – | – | – | – | IC50 [10]: 1.8 µM; IC50 [11]: 1.8 µM; IC50 ([12]; Homo sapiens, SK-OV-3, SK-OV-3 ovarian carcinoma cell line): < 20 µM; IC50 ([12]; SK-OV-3 ovarian carcinoma cell line): 10.6 µM; IC50 [13]: 5.3 µM; IC50 [14]: 1.5 µM; IC50 [15]: < 10 µM
– | COc1cccc2c1C(=O)c1c(O)c3c(c(O)c1C2=O)C[C@@](O)(C(=O)CO)C[C@@H]3O[C@H]1C[C@H](N)[C@H](O)[C@H](C)O1 [adriamycin] | – | – | – | – | – | – | – | – | resistance of H69AR compared to the parental NCI-H69 cell line [16]: approximately 50 fold
